From ChEMBL document CHEMBL1146681, “Design and synthesis of 3,7-diarylimidazopyridines as inhibitors of the VEGF-receptor KDR” (Bioorg Med Chem Lett, 2004)
pIC50: −log10 of the molar value.

Tests used:
[1] = target: T1, Vascular endothelial growth factor receptor 2 (Homo sapiens, UniProt P35968); experiment: Intrinsic potency against VEGF stimulated KDR phosphorylation; format: functional
[2] = target: T1, Vascular endothelial growth factor receptor 2; experiment: Inhibition of VEGF stimulated phosphorylation of KDR on tyrosine residues in human kidney cells expressing vascular endothelial growth factor receptor 2; format: cell-based
[3] = target: VEGF-receptor 2 and PDGF-receptor beta (KDR and PDGFR beta) (Homo sapiens) (UniProt P09619+P35968); experiment: Selectivity for VEGFR2 over platelet-derived growth factor receptor beta
[4] = target: Vascular endothelial growth factor receptor 1 and 2 (Flt-1 and KDR) (Homo sapiens) (UniProt P17948+P35968); experiment: Selectivity for VEGF-receptor 2 over fms-like tyrosine kinase 1, VEGF-receptor 1; format: protein assay
[5] = target: Vascular endothelial growth factor receptor 2 and 3 (KDR and Flt-4) (Homo sapiens) (UniProt P35916+P35968); experiment: Selectivity of for VEGF-receptor 2 over fms-like tyrosine kinase-4, VEGF-receptor 3; format: protein assay
[6] = target: VEGF-receptor 2 and tyrosine-protein kinase SRC (Homo sapiens) (UniProt P12931+P35968); experiment: Selectivity for VEGF-receptor 2 over c-Src tyrosine kinase; format: protein assay
[7] = target: VEGF-receptor 2 and Fibroblast growth factor receptor 1 (Homo sapiens) (UniProt P35968+P11362); experiment: Selectivity for VEGF-receptor 2 over fibroblast growth factor receptor 1; format: protein assay
[8] = target: T1, Vascular endothelial growth factor receptor 2; experiment: Inhibition of phosphorylation of poly-Glu/Tyr (4:1) peptide substrate by VEGF-receptor 2 (KDR) kinase
[9] = target: Fibroblast growth factor receptor 4 (Homo sapiens) (UniProt P22455); experiment: Selectivity for fibroblast growth factor receptor 4

T1 sequence (P35968 whole entry): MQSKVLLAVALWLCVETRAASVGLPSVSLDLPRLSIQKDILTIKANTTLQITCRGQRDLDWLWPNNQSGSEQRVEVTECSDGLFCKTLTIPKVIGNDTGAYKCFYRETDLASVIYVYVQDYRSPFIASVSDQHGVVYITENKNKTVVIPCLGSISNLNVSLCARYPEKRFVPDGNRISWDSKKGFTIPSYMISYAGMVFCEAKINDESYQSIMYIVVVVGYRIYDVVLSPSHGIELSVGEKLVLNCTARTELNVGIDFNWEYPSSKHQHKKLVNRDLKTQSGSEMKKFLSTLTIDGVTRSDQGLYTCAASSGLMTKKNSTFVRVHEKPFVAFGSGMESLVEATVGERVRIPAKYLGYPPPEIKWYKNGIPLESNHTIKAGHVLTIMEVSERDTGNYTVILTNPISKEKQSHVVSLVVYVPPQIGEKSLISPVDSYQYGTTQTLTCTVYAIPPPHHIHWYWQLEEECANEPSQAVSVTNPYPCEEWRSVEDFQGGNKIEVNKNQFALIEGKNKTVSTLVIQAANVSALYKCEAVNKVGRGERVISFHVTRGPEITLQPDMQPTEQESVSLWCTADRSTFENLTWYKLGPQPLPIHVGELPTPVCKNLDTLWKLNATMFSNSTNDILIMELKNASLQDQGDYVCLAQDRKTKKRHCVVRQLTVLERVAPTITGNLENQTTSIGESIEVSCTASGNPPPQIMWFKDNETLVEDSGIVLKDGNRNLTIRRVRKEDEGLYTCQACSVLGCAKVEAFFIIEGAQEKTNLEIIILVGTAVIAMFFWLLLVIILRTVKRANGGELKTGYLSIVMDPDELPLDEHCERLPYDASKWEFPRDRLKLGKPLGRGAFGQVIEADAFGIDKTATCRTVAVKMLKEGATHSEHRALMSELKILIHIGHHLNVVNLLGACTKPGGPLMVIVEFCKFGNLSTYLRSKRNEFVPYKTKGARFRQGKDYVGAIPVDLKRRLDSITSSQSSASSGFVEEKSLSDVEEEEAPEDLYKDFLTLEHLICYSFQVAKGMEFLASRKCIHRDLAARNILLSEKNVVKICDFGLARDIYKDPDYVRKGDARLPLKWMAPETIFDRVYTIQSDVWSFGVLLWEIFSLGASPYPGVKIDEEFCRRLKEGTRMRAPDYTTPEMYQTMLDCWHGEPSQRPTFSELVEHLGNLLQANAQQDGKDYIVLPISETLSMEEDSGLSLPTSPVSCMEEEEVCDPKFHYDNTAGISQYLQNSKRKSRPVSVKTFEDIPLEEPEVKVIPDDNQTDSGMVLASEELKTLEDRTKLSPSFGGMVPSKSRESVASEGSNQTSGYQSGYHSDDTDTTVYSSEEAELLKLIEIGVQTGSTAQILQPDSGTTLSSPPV
Vascular endothelial growth factor receptor 2 and 3 (KDR and Flt-4) (Homo sapiens), sequence (P35916 whole entry, looked up): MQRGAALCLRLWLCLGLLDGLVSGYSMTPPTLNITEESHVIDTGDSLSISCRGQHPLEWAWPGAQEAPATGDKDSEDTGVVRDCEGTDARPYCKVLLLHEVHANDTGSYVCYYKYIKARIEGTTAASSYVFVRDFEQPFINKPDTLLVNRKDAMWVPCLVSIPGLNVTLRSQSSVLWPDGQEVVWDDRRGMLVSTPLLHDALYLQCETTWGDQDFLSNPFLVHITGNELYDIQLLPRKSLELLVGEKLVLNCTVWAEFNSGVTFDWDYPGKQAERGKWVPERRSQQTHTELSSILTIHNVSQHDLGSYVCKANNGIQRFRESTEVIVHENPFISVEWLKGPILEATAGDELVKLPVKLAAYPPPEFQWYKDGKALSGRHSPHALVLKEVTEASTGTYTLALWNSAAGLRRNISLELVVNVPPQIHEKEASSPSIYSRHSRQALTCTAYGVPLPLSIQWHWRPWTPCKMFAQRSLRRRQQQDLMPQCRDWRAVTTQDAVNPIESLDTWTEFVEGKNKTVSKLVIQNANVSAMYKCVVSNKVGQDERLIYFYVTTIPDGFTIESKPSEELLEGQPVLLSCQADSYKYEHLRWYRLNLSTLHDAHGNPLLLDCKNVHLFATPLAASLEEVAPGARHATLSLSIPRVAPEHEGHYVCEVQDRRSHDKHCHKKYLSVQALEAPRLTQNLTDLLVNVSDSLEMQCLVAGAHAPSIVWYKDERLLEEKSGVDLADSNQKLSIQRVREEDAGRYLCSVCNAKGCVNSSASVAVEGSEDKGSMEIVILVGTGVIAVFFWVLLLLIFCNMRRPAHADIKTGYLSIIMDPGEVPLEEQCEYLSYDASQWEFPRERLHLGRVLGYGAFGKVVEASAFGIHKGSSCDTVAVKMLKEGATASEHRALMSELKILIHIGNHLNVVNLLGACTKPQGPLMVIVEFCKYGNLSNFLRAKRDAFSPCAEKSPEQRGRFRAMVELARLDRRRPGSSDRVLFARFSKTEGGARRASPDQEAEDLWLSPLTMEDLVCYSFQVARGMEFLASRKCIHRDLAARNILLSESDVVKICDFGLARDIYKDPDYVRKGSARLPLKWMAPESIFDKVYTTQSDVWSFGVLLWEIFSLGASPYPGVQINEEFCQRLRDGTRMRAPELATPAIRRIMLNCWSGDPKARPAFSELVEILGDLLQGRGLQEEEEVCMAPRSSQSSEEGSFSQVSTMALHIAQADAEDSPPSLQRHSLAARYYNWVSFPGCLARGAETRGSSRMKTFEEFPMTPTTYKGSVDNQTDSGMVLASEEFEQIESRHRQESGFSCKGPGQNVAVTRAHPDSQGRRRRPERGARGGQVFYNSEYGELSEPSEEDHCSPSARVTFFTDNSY
Vascular endothelial growth factor receptor 2 and 3 (KDR and Flt-4) (Homo sapiens), sequence (P35968 whole entry, looked up): as the sequence (P35968 whole entry) above
Vascular endothelial growth factor receptor 1 and 2 (Flt-1 and KDR) (Homo sapiens), sequence (P17948 whole entry, looked up): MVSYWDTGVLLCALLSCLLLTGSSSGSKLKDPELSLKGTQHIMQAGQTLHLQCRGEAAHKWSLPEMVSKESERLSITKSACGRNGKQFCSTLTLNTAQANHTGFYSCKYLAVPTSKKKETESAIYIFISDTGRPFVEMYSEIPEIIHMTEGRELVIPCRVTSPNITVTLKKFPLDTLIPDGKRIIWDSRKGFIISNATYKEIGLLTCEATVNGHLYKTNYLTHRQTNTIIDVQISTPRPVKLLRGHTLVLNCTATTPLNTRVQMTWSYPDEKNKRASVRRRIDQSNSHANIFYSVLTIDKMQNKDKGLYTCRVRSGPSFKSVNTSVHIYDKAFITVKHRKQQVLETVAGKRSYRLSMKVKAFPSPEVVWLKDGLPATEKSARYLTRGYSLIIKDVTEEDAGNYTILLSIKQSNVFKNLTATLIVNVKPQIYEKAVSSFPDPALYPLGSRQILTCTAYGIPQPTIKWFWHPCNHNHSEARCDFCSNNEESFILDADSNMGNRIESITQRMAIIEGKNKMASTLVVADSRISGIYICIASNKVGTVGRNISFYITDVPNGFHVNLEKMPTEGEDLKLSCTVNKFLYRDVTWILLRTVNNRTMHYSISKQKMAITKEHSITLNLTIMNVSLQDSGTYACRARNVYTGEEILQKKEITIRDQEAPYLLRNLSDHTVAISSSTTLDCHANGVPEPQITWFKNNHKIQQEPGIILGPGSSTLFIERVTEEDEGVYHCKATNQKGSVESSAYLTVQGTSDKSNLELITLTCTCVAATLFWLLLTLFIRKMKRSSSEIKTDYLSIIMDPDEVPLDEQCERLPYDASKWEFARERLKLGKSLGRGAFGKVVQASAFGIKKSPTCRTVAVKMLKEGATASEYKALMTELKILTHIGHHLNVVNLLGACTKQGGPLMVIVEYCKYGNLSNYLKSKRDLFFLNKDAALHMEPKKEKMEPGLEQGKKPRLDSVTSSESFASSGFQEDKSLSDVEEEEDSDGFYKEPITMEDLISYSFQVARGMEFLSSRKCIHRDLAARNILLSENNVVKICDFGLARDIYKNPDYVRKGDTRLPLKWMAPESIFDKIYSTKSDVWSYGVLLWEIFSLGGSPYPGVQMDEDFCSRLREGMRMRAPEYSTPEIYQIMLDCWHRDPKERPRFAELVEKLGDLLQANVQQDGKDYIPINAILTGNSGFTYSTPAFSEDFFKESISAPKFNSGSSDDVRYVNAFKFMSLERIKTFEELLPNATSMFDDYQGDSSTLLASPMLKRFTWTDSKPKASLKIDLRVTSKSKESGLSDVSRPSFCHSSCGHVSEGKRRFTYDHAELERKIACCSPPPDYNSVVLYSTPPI
Vascular endothelial growth factor receptor 1 and 2 (Flt-1 and KDR) (Homo sapiens), sequence (P35968 whole entry, looked up): as the sequence (P35968 whole entry) above
VEGF-receptor 2 and Fibroblast growth factor receptor 1 (Homo sapiens), sequence (P11362 whole entry, looked up): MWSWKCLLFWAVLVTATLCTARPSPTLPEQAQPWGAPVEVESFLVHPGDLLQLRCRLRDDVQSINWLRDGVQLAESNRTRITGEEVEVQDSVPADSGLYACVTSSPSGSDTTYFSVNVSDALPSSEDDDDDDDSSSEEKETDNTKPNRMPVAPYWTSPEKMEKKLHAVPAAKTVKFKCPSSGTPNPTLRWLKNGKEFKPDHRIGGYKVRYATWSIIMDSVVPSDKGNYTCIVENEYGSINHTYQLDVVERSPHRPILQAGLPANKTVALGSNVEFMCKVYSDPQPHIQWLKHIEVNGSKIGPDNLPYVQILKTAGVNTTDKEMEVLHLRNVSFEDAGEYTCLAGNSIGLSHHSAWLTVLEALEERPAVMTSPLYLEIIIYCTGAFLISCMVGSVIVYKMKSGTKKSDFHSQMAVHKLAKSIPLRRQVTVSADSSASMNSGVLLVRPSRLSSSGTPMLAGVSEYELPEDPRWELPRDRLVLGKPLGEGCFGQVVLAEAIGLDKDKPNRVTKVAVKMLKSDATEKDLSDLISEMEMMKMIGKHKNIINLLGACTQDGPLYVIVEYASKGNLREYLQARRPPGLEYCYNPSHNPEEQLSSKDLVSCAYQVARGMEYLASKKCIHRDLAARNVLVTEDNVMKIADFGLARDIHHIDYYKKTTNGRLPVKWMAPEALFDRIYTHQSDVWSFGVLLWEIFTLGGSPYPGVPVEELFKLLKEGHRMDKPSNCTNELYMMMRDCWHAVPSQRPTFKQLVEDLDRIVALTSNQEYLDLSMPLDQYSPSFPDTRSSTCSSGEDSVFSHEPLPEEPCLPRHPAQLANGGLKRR
VEGF-receptor 2 and Fibroblast growth factor receptor 1 (Homo sapiens), sequence (P35968 whole entry, looked up): as the sequence (P35968 whole entry) above

SMILES: CC(=O)N1CCN(Cc2ccc(-c3ccn4c(-c5ccccc5)cnc4c3)cc2)CC1
- pIC50 [1]: 6.52
- pIC50 [2]: 7.11

SMILES: O=c1cc(-c2ccn3c(-c4ccccc4)cnc3c2)ccn1CCCN1CCCCC1
- Selectivity [3]: 1
- Selectivity [4]: 3.1
- pIC50 [1]: 7.29
- Selectivity [5]: 2.8
- Selectivity [6]: 68
- Selectivity [7]: 60
- pIC50 [2]: 7.55

SMILES: c1ccc(-c2ccn3c(-c4cnsc4)cnc3c2)cc1
- pIC50 [2]: 7.30

SMILES: COc1cccc(-c2cnc3cc(-c4ccccc4)ccn23)n1
- pIC50 [2]: 6.62

SMILES: COc1ccc(-c2cnc3cc(-c4ccccc4)ccn23)cn1
- pIC50 [8]: 5.55

SMILES: c1ccc(-c2ccn3c(-c4cncs4)cnc3c2)cc1
- pIC50 [2]: 7.00

SMILES: O=c1cc(-c2ccn3c(-c4ccccc4)cnc3c2)ccn1CCCO
- pIC50 [2]: 6.92

SMILES: c1ccc(-c2ccn3c(-c4ccncc4)cnc3c2)cc1
- pIC50 [2]: 6.84

SMILES: NC(=O)N1CCN(Cc2ccc(-c3ccn4c(-c5ccccc5)cnc4c3)cc2)CC1
- pIC50 [2]: 7.16

SMILES: c1ccc(-c2ccn3c(-c4ccccc4)cnc3c2)cc1
- pIC50 [2]: 7.01

SMILES: c1ccc(-c2ccn3c(-c4cccnc4)cnc3c2)cc1
- pIC50 [2]: 6.03

SMILES: CNC(=O)N1CCN(Cc2ccc(-c3ccn4c(-c5ccccc5)cnc4c3)cc2)CC1
- pIC50 [1]: 6.39
- pIC50 [2]: 7.28

SMILES: COCCN(C)CCCn1ccc(-c2ccn3c(-c4ccccc4)cnc3c2)cc1=O
- pIC50 [2]: 7.02

SMILES: CN(C)CC1CCCN(CCCn2ccc(-c3ccn4c(-c5ccccc5)cnc4c3)cc2=O)C1 (configuration not stated)
- pIC50 [1]: 6.55
- pIC50 [2]: 7.17

SMILES: CS(=O)(=O)N1CCN(Cc2ccc(-c3ccn4c(-c5ccccc5)cnc4c3)cc2)CC1
- pIC50 [1]: 6.96
- pIC50 [2]: 7.89

SMILES: c1ccc(-c2ccn3c(-c4nccs4)cnc3c2)cc1
- Selectivity [3]: 1.4
- Selectivity [4]: 7
- Selectivity [9]: 23
- Selectivity [5]: 1.7
- Selectivity [6]: 165
- Selectivity [7]: 47
- pIC50 [2]: 7.38
